Holding throughout (assay): In vitro antibacterial activity, broth microdilution MIC90
Type in all cases: cell-based
In general terms: In broth dilution the organism is exposed to a series of concentrations in liquid medium.

For one assay, the system named is Staphylococcus aureus. The method, then:
(§1) MIC90 was measured by broth microdilution method based on CLSI standards [reference: Clinical and Laboratory Standards Institute Document. (2000) Methods for Dilution Antimicrobial Susceptibility Test for Bacteria that Grow Aerobically-Fifth Edition: M7-A5. CLSI, Villanova, Pa.].
(§2) Activities of 12 strains including Staphylococcus aureus, Methicillin Resistant Staphylococcus aureus, Staphylococcus epidermidis, Methicillin Resistant Staphylococcus epidermidis, Enterococcus faecalis, Vancomycin Resistant Enterococcus faecalis, Linezolid and Vancomycin Resistant Enterococcus faecalis, Enterococcus faecium, Vancomycin Resistant Enterococcus faecium, Linezolid and Vancomycin Resistant Enterococcus faecium, and Moraxella catarrhalis, were measured, and results are shown in Table 1 below.
(§3) The final concentration of test material in the antibacterial test was from 0.063 μg/mL (minimum) to 128 μg/mL (maximum), and the final concentration of DMSO used as an excipient was 2.5% (V/V). Linezolid represented by Formula B below (manufactured by Pfizer) was used as a control and bacterial activity thereof was compared with those of the test materials.

Assay [1] has as its system Linezolid and Vancomycin Resistant Enterococcus faecium (strain 10). The method, then: as §1, §2, §3
The subject of the next assay is Moraxella catarrhalis. The method, then: as §1, §2, §3
Assay [2] concerns Staphylococcus epidermidis. The method, then:
as §1, §2, §3

Assay [3] relates to Vancomycin Resistant Enterococcus faecalis. The method, then:
as §1, §2, §3

Another assay concerns Enterococcus faecium. The method, then:
as §1, §2, §3

In assay [4] the test system is Methicillin Resistant Staphylococcus epidermidis. The method, then:
as §1, §2, §3

The subject of another assay is Enterococcus faecalis. The method, then:
as §1, §2, §3

Assay [5] relates to Vancomycin Resistant Enterococcus faecium. The method, then:
as §1, §2, §3

Assay [6] deals with Methicillin Resistant Staphylococcus aureus. The method, then: as §1, §2, §3
Assay [7] has as its system Linezolid and Vancomycin Resistant Enterococcus faecalis. The method, then: as §1, §2, §3
The test system of assay [8] is Linezolid and Vancomycin Resistant Enterococcus faecium (strain 11). The method, then: as §1, §2, §3

Each structure is given as a SMILES string. In brackets after ≈: the same amount, converted by molar mass. Read-outs that look alike come from different tables or passages of the source.

With `O=C(C(O)CO)N1CCN(c2ccc(-c3ccc(N4C[C@H](CNc5ccon5)OC4=O)cc3F)cn2)C=N1` (stereo partly shown) [Compound 43], the MIC90 with Staphylococcus aureus (strain 1, S. aureus) came out at 0.25 µg/mL (≈ 0.476 µM); in [1] (strain 10, E. faecium VanA LR), 4 µg/mL (≈ 7.61 µM); with Moraxella catarrhalis (strain 12, M. catarrhalis), 2 µg/mL (≈ 3.81 µM); in assay [2] (strain 3, S. epidermidis), 1 µg/mL (≈ 1.9 µM); in assay [3] (strain 6, E. faecalis VanA), 1 µg/mL (≈ 1.9 µM); with Enterococcus faecium (strain 8, E. faecium) it was 0.25 µg/mL (≈ 0.476 µM). In addition, the MIC90 in [4] (strain 4, S. epidermidis MR) was found to be 2 µg/mL (≈ 3.81 µM); in the assay on Enterococcus faecalis (strain 5, E. faecalis), 0.5 µg/mL (≈ 0.951 µM); in [5] (strain 9, E. faecium VanA), 0.5 µg/mL (≈ 0.951 µM); in [6] (strain 2, S. aureus MR), 0.5 µg/mL (≈ 0.951 µM); in [7] (strain 7, E. faecalis VanA LR), 2 µg/mL (≈ 3.81 µM); in assay [8] (strain 11, E. faecium VanA LR), 4 µg/mL (≈ 7.61 µM).
Consider `CC(=O)NC[C@H]1CN(c2ccc(-c3ccc(N4C=NN(CCO)CC4)nc3)c(F)c2)C(=O)O1` [Compound 6], for which the MIC90 with Staphylococcus aureus (Staphylococcus aureus, strain 1, S. aureus, read-out: MIC90) was determined as 0.5 µg/mL (≈ 1.1 µM); in [1] (Enterococcus faecium, strain 10, E. faecium VanA LR, read-out: MIC90), 2 µg/mL (≈ 4.38 µM); in [2] (Staphylococcus epidermidis, strain 3, S. epidermidis, read-out: MIC90), 0.5 µg/mL (≈ 1.1 µM); in assay [3] (Enterococcus faecalis, strain 6, E. faecalis VanA, read-out: MIC90), 0.5 µg/mL (≈ 1.1 µM); with Enterococcus faecium (Enterococcus faecium, strain 8, E. faecium, read-out: MIC90) it was 0.5 µg/mL (≈ 1.1 µM); in [4] (Staphylococcus epidermidis, strain 4, S. epidermidis MR, read-out: MIC90), 1 µg/mL (≈ 2.19 µM). The MIC90 in the assay with Enterococcus faecalis (Enterococcus faecalis, strain 5, E. faecalis, read-out: MIC90) turned out to be 0.5 µg/mL (≈ 1.1 µM); in assay [5] (Enterococcus faecium, strain 9, E. faecium VanA, read-out: MIC90), 0.5 µg/mL (≈ 1.1 µM); in assay [6] (Staphylococcus aureus, strain 2, S. aureus MR, read-out: MIC90) it was 1 µg/mL (≈ 2.19 µM); in [7] (Enterococcus faecalis, strain 7, E. faecalis VanA LR, read-out: MIC90), 2 µg/mL (≈ 4.38 µM); in assay [8] (Enterococcus faecium, strain 11, E. faecium VanA LR, read-out: MIC90), 2 µg/mL (≈ 4.38 µM).
For `CC(=O)NC[C@H]1CN(c2ccc(-c3ccc(N4C=NN(CC(=O)O)CC4)nc3)c(F)c2)C(=O)O1` [Compound 10], the MIC90 in the assay on Staphylococcus aureus (Staphylococcus aureus) is 1 µg/mL (≈ 2.13 µM); in [1] (Enterococcus faecium), 8 µg/mL (≈ 17 µM); in assay [2] (Staphylococcus epidermidis), 1 µg/mL (≈ 2.13 µM); in [3] (Enterococcus faecalis), 2 µg/mL (≈ 4.25 µM); in the assay with Enterococcus faecium (Enterococcus faecium) it was 1 µg/mL (≈ 2.13 µM); in [4] (Staphylococcus epidermidis), 2 µg/mL (≈ 4.25 µM). The MIC90 against Enterococcus faecalis (Enterococcus faecalis) amounted to 1 µg/mL (≈ 2.13 µM); in assay [5] (Enterococcus faecium) it was 2 µg/mL (≈ 4.25 µM); in assay [6] (Staphylococcus aureus) it was 2 µg/mL (≈ 4.25 µM); in assay [7] (Enterococcus faecalis), 8 µg/mL (≈ 17 µM); in assay [8] (Enterococcus faecium), 8 µg/mL (≈ 17 µM).
With `NCC(=O)N1CCN(c2ccc(-c3ccc(N4C[C@H](Cn5ccnn5)OC4=O)cc3F)cn2)C=N1` [Compound 38], the MIC90 is 0.125 µg/mL (≈ 0.261 µM) in the assay on Staphylococcus aureus (Staphylococcus aureus); 4 µg/mL (≈ 8.34 µM) in assay [1] (Enterococcus faecium); 2 µg/mL (≈ 4.17 µM) in the assay with Moraxella catarrhalis (Moraxella catarrhalis); 0.5 µg/mL (≈ 1.04 µM) in assay [2] (Staphylococcus epidermidis); 0.5 µg/mL (≈ 1.04 µM) in [3] (Enterococcus faecalis); 0.25 µg/mL (≈ 0.521 µM) against Enterococcus faecium (Enterococcus faecium). The MIC90 worked out at 0.5 µg/mL (≈ 1.04 µM) in assay [4] (Staphylococcus epidermidis); 0.25 µg/mL (≈ 0.521 µM) against Enterococcus faecalis (Enterococcus faecalis); 0.5 µg/mL (≈ 1.04 µM) in assay [5] (Enterococcus faecium); 0.5 µg/mL (≈ 1.04 µM) in assay [6] (Staphylococcus aureus); 4 µg/mL (≈ 8.34 µM) in assay [7] (Enterococcus faecalis); 4 µg/mL (≈ 8.34 µM) in [8] (Enterococcus faecium).
With `C#CCN1C=NN(c2ccc(-c3ccc(N4C[C@H](CNC(C)=O)OC4=O)cc3F)cn2)CC1` [Compound 55], the MIC90 against Staphylococcus aureus (Staphylococcus aureus) amounted to 1 µg/mL (≈ 2.22 µM); in [1] (Enterococcus faecium), 4 µg/mL (≈ 8.88 µM); in [2] (Staphylococcus epidermidis) it was 2 µg/mL (≈ 4.44 µM); in [3] (Enterococcus faecalis), 2 µg/mL (≈ 4.44 µM); against Enterococcus faecium (Enterococcus faecium), 2 µg/mL (≈ 4.44 µM); in [4] (Staphylococcus epidermidis), 4 µg/mL (≈ 8.88 µM). The MIC90 against Enterococcus faecalis (Enterococcus faecalis) came to 1 µg/mL (≈ 2.22 µM); in assay [5] (Enterococcus faecium), 2 µg/mL (≈ 4.44 µM); in assay [6] (Staphylococcus aureus) it was 4 µg/mL (≈ 8.88 µM); in [7] (Enterococcus faecalis) it was 4 µg/mL (≈ 8.88 µM); in assay [8] (Enterococcus faecium), 4 µg/mL (≈ 8.88 µM).
As to `CC(=O)NC[C@H]1CN(c2ccc(-c3ccc(N4C=NN(CC(=O)OC(C)(C)C)CC4)nc3)c(F)c2)C(=O)O1` [Compound 9], the MIC90 against Staphylococcus aureus (Staphylococcus aureus) came out at 1 µg/mL (≈ 1.9 µM); in [1] (Enterococcus faecium) it was 8 µg/mL (≈ 15.2 µM); in assay [2] (Staphylococcus epidermidis), 1 µg/mL (≈ 1.9 µM); in assay [3] (Enterococcus faecalis), 2 µg/mL (≈ 3.8 µM); with Enterococcus faecium (Enterococcus faecium), 2 µg/mL (≈ 3.8 µM); in assay [4] (Staphylococcus epidermidis), 4 µg/mL (≈ 7.6 µM). Besides, the MIC90 in the assay on Enterococcus faecalis (Enterococcus faecalis) was 1 µg/mL (≈ 1.9 µM); in assay [5] (Enterococcus faecium), 2 µg/mL (≈ 3.8 µM); in assay [6] (Staphylococcus aureus) it was 4 µg/mL (≈ 7.6 µM); in [7] (Enterococcus faecalis) it was 8 µg/mL (≈ 15.2 µM); in assay [8] (Enterococcus faecium), 8 µg/mL (≈ 15.2 µM).
With `CCOC(=O)CN1CCN(c2ccc(-c3ccc(N4C[C@H](CNC(C)=O)OC4=O)cc3F)cn2)C=N1` [Compound 5], the MIC90 against Staphylococcus aureus (Staphylococcus aureus) amounted to 0.5 µg/mL (≈ 1 µM); in [1] (Enterococcus faecium), 2 µg/mL (≈ 4.01 µM); in assay [2] (Staphylococcus epidermidis), 0.5 µg/mL (≈ 1 µM); in [3] (Enterococcus faecalis), 0.5 µg/mL (≈ 1 µM); with Enterococcus faecium (Enterococcus faecium) it was 0.5 µg/mL (≈ 1 µM); in assay [4] (Staphylococcus epidermidis), 1 µg/mL (≈ 2.01 µM). The MIC90 came out at 0.5 µg/mL (≈ 1 µM) with Enterococcus faecalis (Enterococcus faecalis); 0.5 µg/mL (≈ 1 µM) in assay [5] (Enterococcus faecium); 1 µg/mL (≈ 2.01 µM) in assay [6] (Staphylococcus aureus); 2 µg/mL (≈ 4.01 µM) in [7] (Enterococcus faecalis); 2 µg/mL (≈ 4.01 µM) in assay [8] (Enterococcus faecium).

As usually defined, the MIC90 is the lowest concentration that inhibits either 90% of growth or 90% of the strains tested, depending on the study.

(Values after patent US8846669B2, “Oxazolidinone derivative and medical composition containing same” (Legochem Biosciences, Inc., priority 2011, dated 2014).)
